Reference: US10100056B2, “SHIP1 modulators and methods related thereto” (Aquinox Pharmaceuticals (Canada) Inc., priority 2013, dated 2018)
Marks after values point to notes of the source that are not given here.

Columns and labels:
[1] = system: Akt phosphorylation in Molt-4 (PTEN-/SHIP1+) cells; assay: Akt phosphorylation in lymphocytes (Western blot, IGF-1 stimulated); type: cell-based; parameters: key: +: inhibits Akt phosphorylation at 30 μM; −: no effect on Akt phosphorylation at 30 μM; settings: 30 μM; Molt-4 (SHIP1+) cells, IGF-1 100 ng/mL
Experimental: Molt-4 (PTEN-/SHIP1+) cells are starved in serum free RPMI for overnight. In a 15 mL conical tube, 2-3 million serum starved cells (1 million cells per mL) are treated with various concentrations of test compound ([…]) for 30 min at 37° C. followed by stimulation with 100 ng/mL of IGF-1 for 1 hour at 37° C. After stimulation, cells are washed once with ice-cold DPBS and lysed with Lysis Buffer (20 mM Tris-HCl, pH 7.5, 140 mM NaCl, 1% NP-40, Complete Mini Protease Inhibitor Cocktail, 10 mM NaF, 1 mM Na3VO4, 1 mM β-glycerolphosphate) on ice for 30 min with vortexing every 10 min. Samples are then centrifuged at 13,000 rpm for 20 min, and supernatants are collected as total cell lysate samples. Protein concentration is determined using bicinchonic acid assay, and about 15 μg of total protein from each sample is loaded and separated on a 4-12% Tris-Glycine gel. After SDS-PAGE, proteins are transferred from the gel to a nitrocellulose membrane. The membrane is blocked in 5% BSA in PBS containing 0.1% Tween-20 (PBS-T) for 1 hour at room temperature before probing with primary antibodies for overnight at 4° C. The following antibodies are used: mouse anti-SHIP1 (1:500 dilution; Santa Cruz, Calif., USA), rabbit anti-phospho-Akt (Ser473) (1:1000 dilution; Cell Signaling Technologies, MA, USA), rabbit anti-Akt (1:1000; Cell Signaling Technologies, MA, USA), and rabbit anti-actin (1:2000; Cell Signaling Technologies, MA, USA). The membrane is then incubated with goat anti-rabbit or anti-mouse secondary antibodies (1:3000) for 1 hour at room temperature. Target proteins on the membrane are detected with ECL solution and exposed on a film.

His-hSHIP1 enzyme = target: T1, His-hSHIP1 enzyme (Homo sapiens, UniProt Q92835); assay: His-hSHIP1 activity (phosphatase assay, IP4 substrate, Biomol Green); type: biochemical; parameters: key to Scoring, Approach 2 (Initial velocity Ratio): +++: higher than reference or reference - 15%; ++: reference - 16% to reference - 30%; +: reference - 31% or lower; −: inhibitor; settings: for Scoring, Approach 2 (Initial velocity Ratio): second approach: ratio of initial velocities IP4 25/250 μM compared with reference compound, values without asterisk
T1 construct: His
T1 sequence (Q92835 1-1189): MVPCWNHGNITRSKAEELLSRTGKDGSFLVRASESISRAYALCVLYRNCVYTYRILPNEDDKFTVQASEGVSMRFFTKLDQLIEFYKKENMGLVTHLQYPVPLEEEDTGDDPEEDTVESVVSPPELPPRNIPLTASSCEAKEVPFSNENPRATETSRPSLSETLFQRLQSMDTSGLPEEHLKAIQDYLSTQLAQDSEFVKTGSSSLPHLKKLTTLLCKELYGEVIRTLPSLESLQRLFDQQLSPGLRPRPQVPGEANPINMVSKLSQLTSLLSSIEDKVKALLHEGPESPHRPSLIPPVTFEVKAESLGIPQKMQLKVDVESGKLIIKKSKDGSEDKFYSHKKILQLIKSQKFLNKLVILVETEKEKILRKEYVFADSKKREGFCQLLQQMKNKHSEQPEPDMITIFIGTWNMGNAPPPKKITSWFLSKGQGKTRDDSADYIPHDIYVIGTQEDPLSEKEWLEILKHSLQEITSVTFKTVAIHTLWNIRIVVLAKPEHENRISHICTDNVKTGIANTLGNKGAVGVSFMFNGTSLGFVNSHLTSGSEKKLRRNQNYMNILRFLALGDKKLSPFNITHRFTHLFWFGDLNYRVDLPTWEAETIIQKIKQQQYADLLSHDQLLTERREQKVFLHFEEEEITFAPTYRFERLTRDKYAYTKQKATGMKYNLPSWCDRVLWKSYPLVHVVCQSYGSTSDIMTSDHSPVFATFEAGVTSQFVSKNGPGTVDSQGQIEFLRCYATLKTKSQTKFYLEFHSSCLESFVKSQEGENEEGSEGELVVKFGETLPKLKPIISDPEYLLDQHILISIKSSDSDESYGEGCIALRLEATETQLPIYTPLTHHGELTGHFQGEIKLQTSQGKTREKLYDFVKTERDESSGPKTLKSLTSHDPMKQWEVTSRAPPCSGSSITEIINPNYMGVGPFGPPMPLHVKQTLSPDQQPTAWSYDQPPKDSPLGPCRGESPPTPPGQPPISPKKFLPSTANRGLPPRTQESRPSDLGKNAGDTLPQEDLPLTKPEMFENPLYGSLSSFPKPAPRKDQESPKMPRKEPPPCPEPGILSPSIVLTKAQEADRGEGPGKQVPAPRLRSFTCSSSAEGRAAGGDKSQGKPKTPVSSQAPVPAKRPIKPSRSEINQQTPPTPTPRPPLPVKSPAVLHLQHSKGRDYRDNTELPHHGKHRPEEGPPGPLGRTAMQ
Experimental: Test compounds are dissolved in 95% ethanol to form stock solutions. Before screening, the stock solutions are diluted with Phosphatase Assay Buffer (20 mM Tris-HCL, 10 mM MgCl2 pH 7.5, 0.02% Tween 20) to form working assay solutions that contain 10% ethanol. The assay is carried out on 96-well microtiter plates using a modified procedure of that reported by Ong et al., Blood 110, 1942-1949, 2007 and Yang et al., Org Lett 7, 1073-1076, 2005, both of which references are incorporated herein by reference in their entirety.
Data were generated by one of two variant methods. Test compounds are screened by one of two approaches described as follows. In the first approach, each reaction contains 5 μL of His-hSHIP1 enzyme (5-20 ng), 10 μL of the substrate, 1,3,4,5-inositol tetrakisphosphate (IP4; 50 μM final), 5 μL of Phosphatase Assay Buffer, and 5 µL of test compound at various concentrations in 10% ethanol (0-300 μM final). Control blanks are also prepared by replacing His-hSHIP1 enzyme, IP4, or test compounds with Phosphatase Assay Buffer. After adding the reaction components in a 96-well microtiter plate on ice, the reaction is mixed by briefly shaking the plate vigorously. The reaction is then incubated at 37° C. for 15 min with gentle shaking followed by addition of 100 μL of Biomol Green Reagent (BIOMOL, PA, USA) to terminate the reaction. The free phosphate released from IP4 by His-hSHIP1 binds to the Biomol Green Reagent, which turns the dye to green color. After incubating the mixture for 20 min at room temperature for color development, the absorbance is read with SpectraMax Plus 96-well plate reader (Molecular Devices, Sunnyvale, Calif., USA) at a wavelength of 650 nm.
In the second approach, a master mix is prepared that contains 50 μL of His-hSHIP1 enzyme (0.4-1.6 ng/μL final), 25 μL of the substrate, IP4 (25 or 250 μM final), and 50 μL of test compound in 3.3% ethanol (100 μL final). Control blanks are also prepared by replacing His-hSHIP1 enzyme, IP4, or test compounds with Phosphate Assay Buffer. […] Each reaction component is preincubated at 37° C. for 30 min before adding to a 96-well microtiter plate. The master mix is then incubated at 37° C. At time 0, 20, and 30 min, 25 μL of the master mix is removed and transferred to a new 96-well microtiter plate, to which 100 μL of Biomol Green Reagent is added to stop the reaction. After incubating the mixture for 20 min at room temperature for color development, the absorbance is read with SpectraMax Plus 96-well plate reader at a wavelength of 650 nm. Phosphate released is plotted against time to calculate the initial velocities (i.e., slope of the graph) at each IP4 concentration. The initial velocities are baseline corrected and the ratio of initial velocities (IP425/IP4250) is calculated and used to rate the test compounds.

| Compound | Molt-4 (SHIP+): inhibition of Akt phosphorylation [1] | Scoring, Approach 2 (Initial velocity Ratio) (His-hSHIP1 enzyme) | Scoring, Approach 1 (% increase relative to background) (His-hSHIP1 enzyme; first approach: IP4 50 μM, test compound 0-300 μM, values marked with asterisk) |
| --- | --- | --- | --- |
| CC1(C)CCC2=C1CC[C@H]([C@@]1(C)CC[C@H](O)C[C@@H]1CO)[C@H]2CNC(=N)N.Cl [Cpd. No. 1, 1-(((4R,5S)-5-((1R,2S,4S)-4-hydroxy-2-(hydroxymethyl)-1-methylcyclohexyl)-1,1-dimethyl-2,3,4,5,6,7-hexahydro-1H-inden-4-yl)methyl)guanidine hydrochloride] | + | ++ |  |
| C=C1CC[C@H]2[C@H](CNCc3ccc(OC)cc3)[C@@H]([C@@]3(C)CC[C@H](O)C[C@@H]3CO)CC[C@]12C [Cpd. No. 18, (1S,3S,4R)-3-(hydroxymethyl)-4-((3aS,4R,5S,7aS)-4-((4-methoxybenzylamino)methyl)-7a-methyl-1-methyleneoctahydro-1H-inden-5-yl)-4-methylcyclohexanol] | + | + |  |
| C=C1CC[C@H]2[C@H](Cn3cncn3)[C@@H]([C@@]3(C)CC[C@H](O)C[C@@H]3CO)CC[C@]12C [Cpd. No. 27, (1S,3S,4R)-4-((3aS,4R,5S,7aS)-4-((1H-1,2,4-triazol-1-yl)methyl)-7a-methyl-1-methyleneoctahydro-1H-inden-5-yl)-3-(hydroxymethyl)-4-methylcyclohexanol] | − | + |  |
| C=C1CC[C@H]2[C@H](COCc3ccccn3)[C@@H]([C@@]3(C)CC[C@H](O)C[C@@H]3CO)CC[C@]12C [Cpd. No. 61, (1S,3S,4R)-3-(hydroxymethyl)-4-methyl-4-((3aS,4R,5S,7aS)-7a-methyl-1-methylene-4-((pyridin-2-ylmethoxy)methyl)octahydro-1H-inden-5-yl)cyclohexanol] |  | ++ |  |
| C=C1CC[C@H]2[C@H](CO)[C@@H]([C@@]3(C)CC[C@H](N)C[C@@H]3CO)CC[C@]12C [Cpd. No. 63, ((1S,2R,5S)-5-amino-2-((3aS,4R,5S,7aS)-4-(hydroxymethyl)-7a-methyl-1-methyleneoctahydro-1H-inden-5-yl)-2-methylcyclohexyl)methanol] |  |  | ++* (50 ≤ x < 65) |
| CC1(C)C=CC2=C1CC[C@H]([C@@]1(C)CC[C@H](O)C[C@@H]1CO)[C@H]2CO [Cpd. No. 65, (1S,3S,4R)-3-(hydroxymethyl)-4-((4R,5S)-4-(hydroxymethyl)-1,1-dimethyl-4,5,6,7-tetrahydro-1H-inden-5-yl)-4-methylcyclohexanol] |  | ++ |  |
| CC1(C)C2=C(C[C@H]1O)[C@H](CO)[C@@H]([C@@]1(C)CC[C@H](O)C[C@@H]1CO)CC2 [Cpd. No. 66, (2R,4R,5S)-5-((1R,2S,4S)-4-hydroxy-2-(hydroxymethyl)-1-methylcyclohexyl)-4-(hydroxymethyl)-1,1-dimethyl-2,3,4,5,6,7-hexahydro-1H-inden-2-ol] |  | + |  |
| C=C1CC[C@H]2[C@H](COCc3ccccc3)[C@@H]([C@@]3(C)CC[C@H](O)C[C@@H]3CO)CC[C@]12C [Cpd. No. 67, (1S,3S,4R)-4-((3aS,4R,5S,7aS)-4-(benzyloxymethyl)-7a-methyl-1-methyleneoctahydro-1H-inden-5-yl)-3-(hydroxymethyl)-4-methylcyclohexanol] |  | ++ |  |
| C=C1CC[C@H]2[C@H](CNC(=O)c3cccnc3)[C@@H]([C@@]3(C)CC[C@H](O)C[C@@H]3CO)CC[C@]12C [Cpd. No. 69, N-(((3aS,4R,5S,7aS)-5-((1R,2S,4S)-4-hydroxy-2-(hydroxymethyl)-1-methylcyclohexyl)-7a-methyl-1-methyleneoctahydro-1H-inden-4-yl)methyl)nicotinamide] |  | + |  |
| C=C1CC[C@H]2[C@H](CNC(=O)NCc3ccccc3)[C@@H]([C@@]3(C)CC[C@H](O)C[C@@H]3CO)CC[C@]12C [Cpd. No. 91, 1-benzyl-3-(((3aS,4R,5S,7aS)-5-((1R,2S,4S)-4-hydroxy-2-(hydroxymethyl)-1-methylcyclohexyl)-7a-methyl-1-methyleneoctahydro-1H-inden-4-yl)methyl)urea] |  | + |  |
| C=C1CC[C@H]2[C@H](CCNC(=O)c3ccc4c(c3)OCO4)[C@@H]([C@@]3(C)CC[C@H](O)C[C@@H]3O)CC[C@]12C [Cpd. No. 93, N-(2-((3aS,4S,5S,7aS)-5-((1R,2S,4S)-2,4-dihydroxy-1-methylcyclohexyl)-7a-methyl-1-methyleneoctahydro-1H-inden-4-yl)ethyl)benzo[d][1,3]dioxole-5-carboxamide] |  | ++ |  |
